Patent US9409884B2 (Rigel Pharmaceuticals, Inc., priority 2012, dated 2016)

The molecules below were run against AMPK (assay: AMPK activation, enzyme-linked immunosorbent assay). Details: Table 8, compounds of Table 1.
Assay type: biochemical
How it was run: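 AMPK activation by test compounds was measured by enzyme-linked immunosorbent assay.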

| EC50 | SMILES |
| --- | --- |
| < 100 nM | N#Cc1ccc(CN2CCC(NC(=O)c3cc(OC4CCN(c5ccc(C(F)(F)F)cc5)CC4)ccn3)CC2)cc1 [Compound 1-28, N-(1-(4-cyanobenzyl)piperidin-4-yl)-4-(1-(4-(trifluoromethyl)phenyl)piperidin-4-yloxy)picolinamide] |
| < 100 nM | O=C(NC1CCN(C(=O)c2ccncc2)CC1)c1cc2cc(OC3CCN(c4ccc(C(F)(F)F)cc4)CC3)ccc2o1 [Compound 1-115, N-(1-isonicotinoylpiperidin-4-yl)-5-(1-(4-(trifluoromethyl)phenyl)piperidin-4-yloxy)benzofuran-2-carboxamide] |
| < 100 nM | O=C(NC1CCN(Cc2ccc(OC(F)(F)F)cc2)CC1)c1cc2cc(O[C@@H]3CCN(Cc4ccc(Oc5ccc(F)cc5)cc4)C[C@H]3F)ccc2o1 [Compound 1-170, 5-((3,4-trans)-3-fluoro-1-(4-(4-fluorophenoxy)benzyl)piperidin-4-yloxy)-N-(1-(4-(trifluoromethoxy)benzyl)piperidin-4-yl)benzofuran-2-carboxamide] |
| 100 to 500 nM | O=S(=O)(NC1CCN(Cc2cccc(C(F)(F)F)c2)CC1)c1ccc(OC2CCN(c3ccc(C(F)(F)F)cc3)CC2)nc1 [Compound 1-59, N-(1-(3-(trifluoromethyl)benzyl)piperidin-4-yl)-6-(1-(4-(trifluoromethyl)phenyl)piperidin-4-yloxy)pyridine-3-sulfonamide] |
| 1000 to 5000 nM | CC(C)(C)OC(=O)N1CCC(NC(=O)c2sc3cc(OC4CCN(c5ccc(C(F)(F)F)cc5)CC4)ccc3c2Cl)CC1 [Compound 1-147, tert-butyl 4-(3-chloro-6-(1-(4-(trifluoromethyl)phenyl)piperidin-4-yloxy)benzo [b]thiophene-2-carboxamido) piperidine-1-carboxylate] |
| < 100 nM | Cc1c(C(=O)NC2CCN(Cc3ccc(F)cc3)CC2)oc2cc(OC3CCN(c4ccc(C(F)(F)F)cc4)CC3)ccc12 [Compound 1-63, N-(1-(4-fluorobenzyl)piperidin-4-yl)-3-methyl-6-(1-(4-(trifluoromethyl)phenyl)piperidin-4-yloxy)benzofuran-2-carboxamide] |
| < 100 nM | N#Cc1ccc(CN2CCC(NC3CCc4cc(OC5CCN(c6ccc(C(F)(F)F)cc6)CC5)ccc43)CC2)cc1 (stereo not shown) [Compound 1-160, 4-((4-(5-(1-(4-(trifluoromethyl)phenyl)piperidin-4-yloxy)-2,3-dihydro-1H-inden-1-ylamino)piperidin-1-yl)methyl)benzonitrile] |
| < 100 nM | O=C(NC1CCN(Cc2ccncc2)CC1)c1ccc(OC2CCN(c3ccc(C(F)(F)F)cc3)CC2)nc1 [Compound 1-10, N-(1-(pyridin-4-ylmethyl)piperidin-4-yl)-6-(1-(4-(trifluoromethyl)phenyl)piperidin-4-yloxy)nicotinamide] |
| 100 to 500 nM | CC(C)(C)OC(=O)N1CCC(NC(=O)c2cc3ccc(OC4CCN(c5ccc(C(F)(F)F)cc5)CC4)cc3o2)CC1 [Compound 1-82, tert-butyl 4-(6-(1-(4-(trifluoromethyl)phenyl)piperidin-4-yloxy)benzofuran-2-carboxamido) piperidine-1-carboxylate] |

Same assay, conditions: Table 9, compounds of Table 2

| EC50 | SMILES |
| --- | --- |
| 500 to 1000 nM | N#Cc1ccc(S(=O)(=O)N2CCC(NC(=O)c3ccc4[nH]c5c(c4c3)CN(Cc3ccc(C(F)(F)F)cc3)CC5)CC2)cc1 [Compound 2-21, N-(1-(4-cyanophenylsulfonyl)piperidin-4-yl)-2-(4-(trifluoromethyl)benzyl)-2,3,4,5-tetrahydro-1H-pyrido[4,3-b]indole-8-carboxamide] |
| < 500 nM | O=C(NC1CCN(c2ccc(F)cc2)CC1)c1ccc2[nH]c3c(c2c1)CN(Cc1ccc(C(F)(F)F)cc1)CC3 [Compound 2-15, N-(1-(4-fluorophenyl)piperidin-4-yl)-2-(4-(trifluoromethyl)benzyl)-2,3,4,5-tetrahydro-1H-pyrido[4,3-b]indole-8-carboxamide] |
| < 500 nM | O=C(NC1CCN(Cc2cocn2)CC1)c1ccc2[nH]c3c(c2c1)CN(Cc1ccc(C(F)(F)F)cc1)CC3 [Compound 2-54, N-(1-(oxazol-4-ylmethyl)piperidin-4-yl)-2-(4-(trifluoromethyl)benzyl)-2,3,4,5-tetrahydro-1H-pyrido[4,3-b]indole-8-carboxamide] |
| > 100000 nM | CC(C)(C)OC(=O)N1CCC(NC(=O)c2ccc3[nH]c4c(c3c2)CN(Cc2ccc(C(N)=O)cc2)CC4)CC1 [Compound 2-43, tert-butyl 4-(2-(4-carbamoylbenzyl)-2,3,4,5-tetrahydro-1H-pyrido[4,3-b]indole-8-carboxamido)piperidine-1-carboxylate] |

Same assay, conditions: Table 10, compounds of Table 3

| EC50 | SMILES |
| --- | --- |
| < 100 nM | N#Cc1ccc(CN2CCC(NC(=O)c3cnc(OC4CCN(c5ccc(C#N)cc5)CC4)s3)CC2)cc1 [Compound 3-24, N-(1-(4-cyanobenzyl)piperidin-4-yl)-2-(1-(4-cyanophenyl)piperidin-4-yloxy)thiazole-5-carboxamide] |

Same assay, conditions: Table 12, compounds of Table 5

| EC50 | SMILES |
| --- | --- |
| 1000 to 10000 nM | O=C(NC1CCN(Cc2ccccc2)CC1)c1ccc(OC2CCN(C(=O)c3ccc(F)cc3)CC2)c(Cl)c1 [Compound 5-22, N-(1-benzylpiperidin-4-yl)-3-chloro-4-(1-(4-fluorobenzoyl)piperidin-4-yloxy)benzamide] |
| < 1000 nM | O=C(NC1CCN(Cc2ccccc2)CC1)c1ccc(OC2CCN(Cc3ccc(F)c(F)c3)CC2)c(F)c1 [Compound 5-69, N-(1-benzylpiperidin-4-yl)-4-(1-(3,4-difluorobenzyl)piperidin-4-yloxy)-3-fluorobenzamide] |
| < 1000 nM | COc1cc(C(=O)NC2CCN(Cc3ccccc3)CC2)ccc1OC1CCN(Cc2ccccc2)CC1 [Compound 5-2, N-(1-benzylpiperidin-4-yl)-4-(1-benzylpiperidin-4-yloxy)-3-methoxybenzamide] |
| < 1000 nM | N#Cc1ccc(CN2CCC(NC(=O)c3cccc(OC4CCN(Cc5ccc(C#N)cc5)CC4)c3)CC2)cc1 [Compound 5-124, N-(1-(4-cyanobenzyl)piperidin-4-yl)-3-(1-(4-cyanobenzyl)piperidin-4-yloxy)benzamide] |
| 1000 to 10000 nM | COC(=O)c1ccc(CN2CCC(Oc3cccc(C(=O)NC4CCN(Cc5ccc(OC)cc5)CC4)c3)CC2)cc1 [Compound 5-112, methyl 4-((4-(3-(l-(4-methoxybenzyl)piperidin-4-ylcarbamoyl)phenoxy)piperidin-1-yl)methyl)benzoate] |
| > 100000 nM | Cn1cncc1CN1CCC(Oc2ccc(C(=O)NC3CCN(Cc4ccccc4)CC3)cc2)CC1 [Compound 5-4, N-(1-benzylpiperidin-4-yl)-4-(1-((1-methyl-1H-imidazol-5-yl)methyl)piperidin-4-yloxy)benzamide] |
| < 1000 nM | CC(C)(C)c1ccc(CN2CCC(Oc3ccc(C(=O)NC4CCN(Cc5ccccc5)CC4)cc3Cl)CC2)cc1 [Compound 5-16, N-(1-benzylpiperidin-4-yl)-4-(1-(4-tert-butylbenzyl)piperidin-4-yloxy)-3-chlorobenzamide] |
| 1000 to 10000 nM | N#Cc1cccc(CN2CCC(Oc3cccc(C(=O)NC4CCN(Cc5ccccc5)CC4)c3)CC2)c1 [Compound 5-89, N-(1-benzylpiperidin-4-yl)-3-(1-(3-cyanobenzyl)piperidin-4-yloxy)benzamide] |

Same assay, conditions: Table 13, compounds of Table 6

| EC50 | SMILES |
| --- | --- |
| < 100 nM | N#Cc1ccc(CN2CCC(NC(=O)c3cc4cc(CN5CCC(Oc6ccc(C(F)(F)F)cc6)CC5)ccc4o3)CC2)cc1 [Compound 6-27, N-(1-(4-cyanobenzyl)piperidin-4-yl)-5-((4-(4-(trifluoromethyl)phenoxy)piperidin-1-yl)methyl) benzofuran-2-carboxamide] |
| 100 to 1000 nM | CS(=O)(=O)c1ccc(N2CCN(c3ccc4oc(C(=O)NC5CCN(Cc6ccc(C#N)cc6)CC5)cc4c3)CC2)cc1 [Compound 6-9, N-(1-(4-cyanobenzyl)piperidin-4-yl)-5-(4-(4-(methylsulfonyl)phenyl)piperazin-1-yl)benzofuran-2-carboxamide] |
| < 100 nM | CS(=O)(=O)c1ccc(N2CCC(C(=O)Nc3ccc4oc(C(=O)NC5CCN(Cc6ccc(C#N)cc6)CC5)cc4c3)CC2)cc1 [Compound 6-84, N-(2-(1-(4-cyanobenzyl)piperidin-4-ylcarbamoyl)benzofuran-5-yl)-1-(4-(methylsulfonyl)phenyl) piperidine-4-carboxamide] |
| 100 to 1000 nM | N#Cc1ccc(CN2CCC(NC(=O)c3cc4cc(NC(=O)C5CCN(Cc6ccc(C(F)(F)F)cc6)CC5)ccc4o3)CC2)cc1 [Compound 6-50, N-(2-(1-(4-cyanobenzyl)piperidin-4-ylcarbamoyl)benzofuran-5-yl)-1-(4-(trifluoromethyl)benzyl) piperidine-4-carboxamide] |

Same assay, conditions: Table 14, compounds of Table 7

| EC50 | SMILES |
| --- | --- |
| < 1000 nM | CS(=O)(=O)c1ccc(OC2CCN(C(=O)c3ccc(C(=O)Nc4ccc(Oc5ccc(C#N)cc5)nc4)cn3)CC2)cc1 [Compound 7-121, N-(6-(4-cyanophenoxy)pyridin-3-yl)-6-(4-(4-(methylsulfonyl)phenoxy)piperidine-1-carbonyl) nicotinamide] |
| < 1000 nM | O=C(NC1CCN(Cc2cccc(OC(F)(F)F)c2)CC1)c1ccc(C(=O)N2CCC(C(=O)c3ccc(N4CCCC4)cc3)CC2)nc1 [Compound 7-111, 6-(4-(4-(pyrrolidin-1-yl)benzoyl)piperidine-1-carbonyl)-N-(1-(3-(trifluoromethoxy)benzyl)piperidin-4-yl)nicotinamide] |
| < 1000 nM | COc1ccc(C(=O)C2CCN(C(=O)c3ccc(C(=O)NC4CCN(Cc5ccc(OC)c(C#N)c5)C[C@@H]4C)cn3)CC2)cc1 (stereo partly drawn) [Compound 7-100, N-((3,4-cis)-1-(3-cyano-4-methoxybenzyl)-3-methylpiperidin-4-yl)-6-(4-(4-methoxybenzoyl)piperidine-1-carbonyl)nicotinamide] |
| < 1000 nM | COc1ccc(C(=O)C2CCN(C(=O)c3ccc(C(=O)N[C@H]4CCN(Cc5ccc(OC(F)(F)F)cc5)C[C@H]4F)cn3)CC2)cc1 (relative stereo) [Compound 7-123, N-((cis)-3-fluoro-1-(4-(trifluoromethoxy)benzyl)piperidin-4-yl)-6-(4-(4-methoxybenzoyl)piperidine-1-carbonyl)nicotinamide] |
| < 1000 nM | COc1ccc(CN2CCC(NC(=O)c3ccc(C(=O)N4CCC(C(=O)c5ccc(N6CCCC6)cc5)CC4)nc3)CC2)cc1F [Compound 7-113, N-(1-(3-fluoro-4-methoxybenzyl)piperidin-4-yl)-6-(4-(4-(pyrrolidin-1-yl)benzoyl)piperidine-1-carbonyl)nicotinamide] |
